We go through 2 compounds from ChEMBL document CHEMBL1141740, “Studies on the Synthesis of Elegan-Type Linear Diterpenes: The Efficient Total Syntheses of Eleganolone, Eleganolone Acetate, Elegandiol, Eleganonal, and Epoxyeleganolone” (J Nat Prod, 1998).

A word on the IC50: it is the concentration needed to halve the response being measured.

Holding throughout (assay type): functional, tissue-based
Holding throughout (conditions): Cavia porcellus

The subject of assay [1] is Ileum. The experiment in a line: Relaxation activity in guinea pig ileum assessed as relaxation of KCl-induced muscle contractions.
The test system of assay [2] is Ileum. Kind of assay: Relaxation activity in guinea pig ileum assessed as relaxation of BaCl2-induced muscle contractions.
For assay [3], the system named is Ileum. Kind of assay: Relaxation activity in guinea pig ileum assessed as inhibition of acetylcholine-induced muscle contractions.
Assay [4] has as its system Ileum. Kind of assay: Relaxation activity in guinea pig ileum assessed as inhibition of histamine-induced muscle contractions.

In the case of `CC(=O)OC/C=C(\C)CC/C=C(\C)CC/C=C(\C)CC(=O)C=C(C)C` [ELEGANOLONE ACETATE], the Activity result in the assay with Ileum [1] and in the assay on Ileum [2] was “Dose-dependent effect” each time. Besides, the IC50 was 33.9 µM with Ileum [1], 45.7 µM in the assay on Ileum [2], 19.5 µM with Ileum [3] and 6.61 µM in the assay with Ileum [4].

As to `CC(C)=CC(=O)C/C(C)=C/CC/C(C)=C/CC/C(C)=C/CO` [ELEGANOLONE], the Activity entry in the assay on Ileum [1] and in the assay on Ileum [2] was “Dose-dependent effect” each time. The IC50 in the assay on Ileum [1] was 18.6 µM; in the assay with Ileum [2], 45.7 µM; with Ileum [3] it was 25.1 µM; in the assay with Ileum [4] it was 14.5 µM.
